Assay results reported in patent publication US10709704B2, “Treating neural disease with tyrosine kinase inhibitors” (GEORGETOWN UNIVERSITY, priority 2012, dated 2020).

Columns and labels:
caspase-3 activity = test: Caspase-3 activity, lentiviral α-Synuclein mice; format: in vivo, mouse
Text: To measure caspase-3 activity in the animal models, we used EnzChek® caspase-3 assay kit #1 (Invitrogen) on cortical extracts and Z-DEVD-AMC substrate and the […] was read according to manufacturer's protocol.

parkin = test: Parkin levels in neuroblastoma cells (ELISA, WB); format: cell-based
Experimental: Human neuroblastoma M17 or rat B35 cells were grown in 24 well dishes (Falcon). Transient transfection was performed with 3 μg Aβ1-42 cDNA, or 3 μg LacZ cDNA for 24 hr. […] Cells were harvested 48 hr after transfection.
Parkin levels were measured via ELISA using parkin−/− brain extracts as a specificity control (FIG. 66A).

[1] = test system: dopamine and homovanillic acid (HVA) levels; test: Dopamine and HVA ELISA, lentiviral α-Synuclein mice; format: in vivo, mouse; details: 10 mg/kg Nilotinib or 5 mg/Kg Bosutinib
Experimental: Total brain or mesencephalon were collected and fresh 50 μl (1 μg/μl) brain lysates (in STEN buffer) were detected with 50 μl primary antibody (1 h) and 100 μl anti-rabbit secondary antibody (30 min) at RT according to manufacturer's protocols (Abnova, Cat # BOLD01090J00011) for DA and (Eagle Biosciences, Cat # HVA34-K01) for HVA.

Tg-APP mice = test: Morris water maze, Tg-APP mice; format: in vivo, mouse
Experimental: (§1) All animals were pre-trained (trials) to swim for 90 seconds in a water maze containing a platform submerged in water (invisible) for 4 consecutive days once a day. The pretraining trials “teach” the swimming animals that to “escape”, they must find the hidden platform, and stay on it. The water maze “test” was performed on day 5, (40), when the platform was removed and mice have to swim and find it, thus assessing acquisition and retention. All parameters, including distance travelled to reach platform, speed to get to the platform, latency or time spent on platform, and platform entry were digitally recorded on a computer and analyzed by a blind investigator.
These experiments were repeated in 1 year old Tg-APP mice and age-matched control (C57BL/6).

transgenic A53T mice = test: Rotarod, A53T mice; format: in vivo, mouse
Text: (§2) Mice were placed on an accelerating rotarod (Columbus Instruments) equipped with individual timers for each mouse. […] All values were converted to % control.

[2] = test system: mice injected with lentiviral α-synuclein into the substantia nigra; test: Rotarod, lentiviral α-Synuclein mice; format: in vivo, mouse
Text: as §2

[3] = test system: lentiviral Aβ1-42-injected parkin−/− mice; test: Morris water maze, lentiviral Aβ1-42 parkin−/− mice; format: in vivo, mouse
Experimental: as §1
The Morris water maze test was performed after 4 days of training trials in which the platform was placed in the SE corner and mice were initially placed in the NW corner of the pool.

[4] = test system: parkin and molecular markers of autophagy; test: Parkin and autophagy markers (WB, ELISA), lentiviral Aβ1-42 wild type mice; format: in vivo, mouse
[5] = test system: autophagic vacuoles and lysosomes; test: Subcellular fractionation and ELISA, lentiviral Tau±Aβ1-42 mice; format: in vivo, mouse
Experimental: Brain tissues were fractionated to isolate AVs and human specific ELISA was performed to determine Aβ1-42 contents. […] It was also observed that autophagic clearance is parkin-dependent.
Brain tissues were fractionated to isolate AVs and mouse specific ELISA was performed to determine protein contents.
Brain tissues were fractionated to isolate AVs and human specific ELISA was performed to determine protein contents.
0.5 g of Frozen human or animal brains were homogenized at low speed (Cole-Palmer homogenizer, LabGen 7, 115 Vac) in 1×STEN buffer and centrifuged at 1,000 g for 10 minutes to isolate the supernatant from the pellet. The pellet was re-suspended in 1×STEN buffer and centrifuged once to increase the recovery of lysosomes. The pooled supernatants were then centrifuged at 100,000 rpm for 1 hour at 4° C. to extract the pellet containing autophagic vacuoles (AVs) and lysosomes. The pellet was then re-suspended in 10 ml (0.33 g/ml) 50% Metrizamide and 10 ml in cellulose nitrate tubes. A discontinuous Metrizamide gradient was constructed in layers from bottom to top as follows: 6 ml of pellet suspension, 10 ml of 26%; 5 ml of 24%; 5 ml of 20%; and 5 ml of 10% Metrizamide (Marzella et al., 1982). After centrifugation at 10,000 rpm for 1 hour at 4° C., the fraction floating on the 10% layer (Lysosome) and the fractions banding at the 24%/20% (AV 20) and the 20%/10% (AV10) Metrizamide inter-phases were collected by a syringe and examined.
Animal brains were homogenized at low speed (Cole-Palmer homogenizer, LabGen 7, 115 Vac) in 1×STEN buffer and centrifuged at 1,000 g for 10 minutes to isolate the supernatant from the pellet. The pellet was re-suspended in 1×STEN buffer and centrifuged once to increase the recovery of lysosomes. The pooled supernatants were then centrifuged at 100.000 rpm for 1 hour at […] to extract the pellet containing autophagic vacuoles (AVs) and lysosomes. The pellet was then re-suspended in 10 ml (0.33 g/ml) 50% Metrizamide and 10 ml in cellulose nitrate tubes. […]

[6] = test system: molecular markers of autophagy; test: Western blot of autophagy markers, lentiviral α-Synuclein mice; format: in vivo, mouse; details: Nilotinib 10 mg/kg IP daily 3 weeks
Text: Rabbit polyclonal (1:1000) tubulin (Thermo Scientific) was used.

[7] = wild type lentiviral Aβ1-42 mice, Nilotinib vs DMSO

Cc1cn(-c2cc(NC(=O)c3ccc(C)c(Nc4nccc(-c5cccnc5)n4)c3)cc(C(F)(F)F)c2)cn1 [Nilotinib]
caspase-3 activity, Nilotinib vs DMSO (caspase-3 activity; LacZ injected mice, daily IP 10 mg/kg): did not result in any difference | caspase-3 activity (caspase-3 activity; lentiviral α-Synuclein mice, daily IP 10 mg/kg Nilotinib 3 weeks): 140 % of LacZ levels | increase in parkin (ELISA), non-significant (parkin; 10 μM Nilotinib): 17% | increase in parkin (ELISA) (parkin; Aβ1-42 + Nilotinib): 24% | increase in Nilotinib-induced parkin on blocking beclin-1 with shRNA (WB) (parkin; shRNA beclin-1 + Nilotinib): 28% | α-synuclein induced loss of dopamine and HVA levels (ELISA) [1]: reversed these effects | time spent in SE (Tg-APP mice; 1 year old Tg-APP mice, 10 mg/kg daily for 3 weeks): reversed time spent in SE back to control level | distance traveled above control levels (Tg-APP mice; Nilotinib treated Tg-APP mice): 30% | entries into SE (platform entry) higher than control (Tg-APP mice; Tg-APP+Nilotinib): 30% | increase in rotarod motor performance above control levels (transgenic A53T mice; 6-8 months old A53T mice, Nilotinib): 45% | motor performance (rotarod) (transgenic A53T mice; A53T mice, 10 mg/kg Nilotinib or 5 mg/Kg Bosutinib once daily for 3 weeks): increased | rotarod motor performance ([2]; lentiviral α-Synuclein mice + Nilotinib (DMSO 39%)): 86 % of LacZ level | motor performance (rotarod) ([2]; lentiviral α-synuclein mice, 10 mg/kg Nilotinib or 5 mg/Kg Bosutinib): improved motor performance | decrease in distance travelled compared to control and wild type ([3]; Aβ1-42 parkin−/− mice with Nilotinib (first of '±Nilotinib ... respectively')): 80% | time in NW quadrant ([3]; Aβ1-42 parkin−/− mice with and without Nilotinib): remained significantly more in the NW quadrant | LC3-II [4, 7]: disappearance | decrease in LC3-B [4, 7]: 38% | parkin level (ELISA) ([4]; wild type mice and lentiviral Aβ1-42 ± Nilotinib): increases parkin level | autophagic clearance of p-Tau ser 396, human specific ELISA ([5]; lentiviral Tau±Aβ1-42 mice, 10 mg/kg Nilotinib or 5 mg/Kg Bosutinib daily 3 weeks): enhances autophagic clearance | autophagic clearance of Aβ1-42 (deposition in AV-20 and lysosome) ([5]; lentiviral Tau±Aβ1-42 mice, IP 10 mg/kg Nilotinib daily 3 weeks): enhances autophagic clearance | autophagic clearance of p-Tau ser 396, mouse specific ELISA ([5]; lentiviral human Tau±Aβ1-42 mice, IP 10 mg/kg Nilotinib daily 3 weeks): enhances autophagic clearance | decrease in LC3-II compared to LC3-I [6]: 39% | decrease in LC3-II compared to MAP-2 [6]: 41% | decrease in P62 [6]: 69% | increase in Atg-5 compared to actin [6]: 43% | increase in Atg-12 compared to actin [6]: 58% | increase in beclin-1 compared to actin [6]: 62%
